# Measured values as given in ChEMBL document CHEMBL1159383, “Tasipeptins A and B: new cytotoxic depsipeptides from the marine cyanobacterium Symploca sp” (J Nat Prod, 2003).
# System: KB
# Assay: Cytotoxicity against human KB cells
# Assay type: functional, cell-based
row,SMILES,IC50 [nM]
1,CCCC(=O)N[C@@H]1C(=O)N[C@@H](CC(C)C)C(=O)N[C@H]2CC[C@@H](O)N(C2=O)[C@@H](CC(C)C)C(=O)N(C)[C@@H](Cc2ccccc2)C(=O)N[C@@H](C(C)C)C(=O)O[C@@H]1C [TASIPEPTIN B],820
2,CCCC(=O)N[C@H](C(=O)N[C@@H]1C(=O)N[C@@H](CC(C)C)C(=O)N[C@H]2CC[C@@H](O)N(C2=O)[C@@H](CC(C)C)C(=O)N(C)[C@@H](Cc2ccccc2)C(=O)N[C@@H](C(C)C)C(=O)O[C@@H]1C)C(C)C [TASIPEPTIN A],930
